This is an account of results in patent US12319655B2, “RAF kinase inhibitors and methods of use thereof” (Deciphera Pharmaceuticals, LLC, priority 2021, dated 2025).

In experiment [1] the target is C-Raf kinase (SEQ. ID NO: 3) (Homo sapiens (Human), UniProt P04049, Y340D/Y341D). Kind of experiment: Biochemical Assay for C-Raf (1). Particulars: Table J. The essentials:
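IC50 values come from a four-parameter fit of percent inhibition, using the reaction rate over 4–5 h of a 6 h continuous 340 nm read at 30 °C. The enzyme mix was C-Raf 0.43 nM, MEK substrate 30.1 nM and ATP 1 mM, in a PK/LDH NADH-coupled format in Tris pH 7.5 with 1% DMSO.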

Another experiment concerns WM3928 cells. Kind of experiment: WM3928 Cell Proliferation Assay (1). Type of experiment: cell-based. The essentials: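 IC50 was derived from resazurin fluorescence (ex 540, em 600 nm) after a 6–7 h dye incubation. Before that, cells had 67–72 h of compound exposure at 37 °C, 5% CO2.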
The target of experiment [2] is B-Raf kinase (SEQ. ID NO: 2) (Homo sapiens (Human), UniProt P15056). Kind of experiment: Biochemical Assay for B-Raf (1). Particulars: Table J. Summed up:
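IC50 derived by four-parameter sigmoidal fit of percent inhibition, normalised to uninhibited and reference-inhibitor controls, using reaction rates over 4–5 h. Coupled spectrophotometric readout (NADH loss at 340 nm, 6 h, 30° C.); 1 mM ATP, 30.1 nM MEK, 0.13 nM B-Raf, pH 7.5 Tris buffer, 1% DMSO.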

The next experiment has as its system Miapaca-2 cells. Kind of experiment: MiaPaca-2 Cell Proliferation Assay (1). The format is cell-based. The settings on record: Homo sapiens, MIA PaCa-2, single agent, read-out: MiaPaca2 (1) IC50. The essentials:
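Resazurin was added after compound exposure and incubated 5-6 h, then fluorescence read at 540 nm excitation and 600 nm emission to give IC50.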

[3] abbreviates: biochemical assay (1), read-out: CRAF (1).
Setting [4] is: biochemical assay (1), read-out: BRAF (1).
The mark [5] stands for this setting: assay version (1), read-out: CRAF (1) IC50.
[6] abbreviates: assay version (1), read-out: BRAF (1) IC50.

The structures appear in SMILES notation. Where two headings read alike, the source gives them in different places.

Sequence of B-Raf kinase (SEQ. ID NO: 2) (P15056 416-766): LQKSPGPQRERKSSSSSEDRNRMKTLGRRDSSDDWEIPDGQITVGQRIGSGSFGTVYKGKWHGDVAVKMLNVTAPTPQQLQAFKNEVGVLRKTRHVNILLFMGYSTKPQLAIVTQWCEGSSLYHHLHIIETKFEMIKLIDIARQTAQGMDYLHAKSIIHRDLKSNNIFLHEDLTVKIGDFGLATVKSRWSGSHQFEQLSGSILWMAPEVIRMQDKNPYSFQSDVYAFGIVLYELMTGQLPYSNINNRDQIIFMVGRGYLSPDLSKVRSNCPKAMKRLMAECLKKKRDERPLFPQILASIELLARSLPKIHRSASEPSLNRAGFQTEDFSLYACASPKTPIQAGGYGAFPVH
Sequence of C-Raf kinase (SEQ. ID NO: 3) (P04049 307-648 Y340D/Y341D): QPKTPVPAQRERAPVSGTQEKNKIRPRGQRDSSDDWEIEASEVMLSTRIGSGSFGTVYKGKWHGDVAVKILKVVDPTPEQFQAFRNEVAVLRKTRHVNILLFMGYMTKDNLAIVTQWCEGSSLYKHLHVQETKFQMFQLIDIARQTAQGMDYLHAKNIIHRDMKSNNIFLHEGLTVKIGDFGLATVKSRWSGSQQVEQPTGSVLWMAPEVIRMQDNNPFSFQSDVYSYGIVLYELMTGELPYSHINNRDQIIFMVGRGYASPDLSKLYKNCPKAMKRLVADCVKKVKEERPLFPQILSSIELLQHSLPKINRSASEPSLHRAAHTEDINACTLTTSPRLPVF

`Cc1ccc(NC(=O)c2ccnc(C3CC3)c2)cc1-c1cncc(-c2cc(NC(=O)C3CC3)ncn2)c1` [Example 396]: the IC50 was at most 100 nM in experiment [1] (setting [3]), at most 100 nM in the experiment with WM3928 cells, at most 100 nM in experiment [2] (setting [4]) and 1000 to 10000 nM in the experiment on Miapaca-2 cells.

Consider `CCOc1ncc(-c2cc(NC(=O)c3ccnc(C(F)(F)F)c3)ccc2C)cc1-c1ccnc(C(=O)NC)c1` [Example 69], for which the IC50 was 100 to 500 nM in experiment [1] (setting [5]), at most 100 nM in the experiment with WM3928 cells, 100 to 500 nM in experiment [2] (setting [6]) and 1000 to 10000 nM in the experiment with Miapaca-2 cells.

Regarding `Cc1ccc(NC(=O)c2ccnc(C(C)(C)C#N)c2)cc1-c1cncc(-c2ccnc3c2CC(=O)N3)n1` [Example 43], the IC50 in experiment [1] (setting [5]) is at most 100 nM; with WM3928 cells, at most 100 nM; in experiment [2] (setting [6]), at most 100 nM; in the experiment with Miapaca-2 cells, 1000 to 10000 nM.

On to `CCOc1ncc(-c2cc(NC(=O)c3ccnc(C(F)(F)F)c3)ccc2C)cc1-c1ccnc(NC(=O)C2CC2)c1` [Example 71], for which the IC50 in experiment [1] (setting [5]) is 100 to 500 nM; in the experiment on WM3928 cells, at most 100 nM; in experiment [2] (setting [6]) it was 100 to 500 nM; in the experiment on Miapaca-2 cells, 1000 to 10000 nM.

`CNC(=O)c1cc(-c2cc(-c3cc(NC(=O)c4ccnc(C(C)(C)C#N)c4)ccc3C)ccn2)ccn1` [Example 50]: the IC50 was at most 100 nM in experiment [1] (setting [5]), at most 100 nM in the experiment on WM3928 cells, at most 100 nM in experiment [2] (setting [6]) and 1000 to 10000 nM in the experiment on Miapaca-2 cells.

In the case of `CCOc1ncc(-c2cc(NC(=O)c3ccnc(C(F)(F)F)c3)ccc2C)cc1-c1ccnc(NC(C)=O)c1` [Example 68], the IC50 was at most 100 nM in experiment [1] (setting [5]), at most 100 nM in the experiment with WM3928 cells, at most 100 nM in experiment [2] (setting [6]) and 1000 to 10000 nM in the experiment on Miapaca-2 cells.

Regarding `CC(=O)Nc1cc(-c2cc(-c3cc(NC(=O)c4ccnc(C(C)(C)C#N)c4)ccc3C)nc(C)n2)ccn1` [Example 89], the IC50 in experiment [1] (setting [5]) was at most 100 nM; in the experiment on WM3928 cells it was at most 100 nM; in experiment [2] (setting [6]), 100 to 500 nM; with Miapaca-2 cells, 1000 to 10000 nM.

On to `COC(=O)Nc1cc(-c2cc(-c3cc(NC(=O)c4ccnc(C(C)(C)F)c4)ccc3C)cc(OCCO)n2)ccn1` [Example 401], for which the IC50 in experiment [1] (setting [3]) was at most 100 nM; with WM3928 cells it was at most 100 nM; in experiment [2] (setting [4]) it was at most 100 nM; in the experiment with Miapaca-2 cells, 1000 to 10000 nM.
